Assay results reported in patent US5210193A, “Piperazine derivatives” (American Cyanamid Company, priority 1990, dated 1993).
Converted amounts (≈) assume the structure as drawn. Like-named read-outs stand apart in the source and are kept apart here.

Key:
Test in all cases: in vitro antibacterial MIC, agar plate dilution
Assay type in all cases: cell-based
[1] = system: Streptococcus faecalis VGH 84-65; conditions: 35° C.
Protocol: (§1) The in vitro antimicrobial spectrum of the compounds of ths invention were determined by the agar plate dilution method with Mueller-Hinton agar and an inoculum of each test organism of approximately 10^4 colony forming units delivered by the Steers replicating device. The minimal inhibitory concentration (MIC) in mcg/ml is defined as the lowest concentration of test compound that inhibited visible growth after 18 hours incubation at 35° C. Results are given in Table I, with the test compounds identified by the number of their hereinafter described examples.

[2] = system: Proteus rettgeri CMC 84-41; conditions: 35° C.
Protocol: as §1

Escherichia coli LL 311 = conditions: 35° C.
Protocol: as §1

[3] = system: Staphylococcus aureus Smith; conditions: 35° C.
Protocol: as §1

[4] = system: Escherichia coli CMC 84-11; conditions: 35° C.
Protocol: as §1

[5] = system: Serratia marcescens K 84-18; conditions: 35° C.
Protocol: as §1

[6] = system: Serratia marcescens VGH 84-30; conditions: 35° C.
Protocol: as §1

[7] = system: Pseudomonas aeruginosa VGH 84-4; conditions: 35° C.
Protocol: as §1

[8] = system: Escherichia coli ATCC 25922; conditions: 35° C.
Protocol: as §1

[9] = system: Morganella morganii CMC 84-37; conditions: 35° C.
Protocol: as §1

[10] = system: Pseudomonas aeruginosa LL-1244; conditions: 35° C.
Protocol: as §1

[11] = system: Streptococcus faecalis UCI 85-19; conditions: 35° C.
Protocol: as §1

[12] = system: Staphylococcus aureus ATTC 29213; conditions: 35° C.
Protocol: as §1

[13] = system: Staphylococcus aureus VGH 84-45; conditions: 35° C.
Protocol: as §1

[14] = system: Enterobacter cloacae VGH 84-37; conditions: Enterobacter cloacae, VGH8437, 18 h, 35° C., read-out: MIC
Protocol: as §1

[15] = system: Morganella morganii VGH 84-11; conditions: VGH8411, 18 hours, 35° C., read-out: MIC
Protocol: as §1

[16] = system: Klebsiella pneumoniae MOR 84-4; conditions: Klebsiella pneumoniae, MOR844, 18 h, 35° C., read-out: MIC
Protocol: as §1

[17] = system: Streptococcus faecalis ATTC 29212; conditions: Enterococcus faecalis, ATTC29212, 18 hours, 35° C., read-out: MIC
Protocol: as §1

Klebsiella pneumoniae AD = conditions: Klebsiella pneumoniae, 18 h, 35° C., read-out: MIC
Protocol: as §1

[18] = system: Staphylococcus aureus ATCC 25913; conditions: ATCC25913, 18 hours, 35° C.
Protocol: as §1

[19] = system: Enterobacter aerogenes VGH 84-36; conditions: Klebsiella aerogenes, VGH8436, 18 hours, 35° C., read-out: MIC
Protocol: as §1

[20] = Enterococcus faecalis, VGH8465, 18 h, read-out: MIC
[21] = Providencia rettgeri, CMC8441, 18 h, read-out: MIC
[22] = Escherichia coli, LL311, 18 h, read-out: MIC
[23] = Staphylococcus aureus, 18 h, read-out: MIC
[24] = Escherichia coli, CMC8411, 18 h, read-out: MIC
[25] = Serratia marcescens, K8418, 18 h, read-out: MIC
[26] = Serratia marcescens, VGH8430, 18 h, read-out: MIC
[27] = Pseudomonas aeruginosa, VGH844, 18 h, read-out: MIC
[28] = Escherichia coli, ATCC25922, 18 h, read-out: MIC
[29] = Morganella morganii, CMC8437, 18 h, read-out: MIC
[30] = Pseudomonas aeruginosa, LL1244, 18 h, read-out: MIC
[31] = Enterococcus faecalis, UCI8519, 18 h, read-out: MIC
[32] = Staphylococcus aureus, ATTC29213, 18 h, read-out: MIC
[33] = Staphylococcus aureus, VGH8445, 18 h, read-out: MIC

Structure (SMILES) | MIC [1, 20] [µg/mL] | MIC [2, 21] [µg/mL] | MIC (Escherichia coli LL 311; [22]) [µg/mL] | MIC [3, 23] [µg/mL] | MIC [4, 24] [µg/mL] | MIC [5, 25] [µg/mL] | MIC [6, 26] [µg/mL] | MIC [7, 27] [µg/mL] | MIC [8, 28] [µg/mL] | MIC [9, 29] [µg/mL] | MIC [10, 30] [µg/mL] | MIC [11, 31] [µg/mL] | MIC [12, 32] [µg/mL] | MIC [14] [µg/mL] | MIC [15] [µg/mL] | MIC [16] [µg/mL] | MIC [17] [µg/mL] | MIC (Klebsiella pneumoniae AD) [µg/mL] | MIC [18] [µg/mL] | MIC [19] [µg/mL] | also measured
CCn1cc(C(=O)O)c(=O)c2cc(F)c(N3CCN(C)C(CF)C3)c(F)c21 (racemic) [Example 113, Racemic 1-Ethyl-6,8-difluoro-7-[3-(fluoromethyl)-4-methyl-1-piperazinyl]-1,4-dihydro-4-oxo-3-quinolinecarboxylic acid] | 8 (≈ 20.9 µM) | 2 (≈ 5.22 µM) | 0.5 (≈ 1.3 µM) | 0.25 (≈ 0.652 µM) | 0.25 (≈ 0.652 µM) | 2 (≈ 5.22 µM) | 16 (≈ 41.7 µM) | 8 (≈ 20.9 µM) | 0.25 (≈ 0.652 µM) | 1 (≈ 2.61 µM) | 32 (≈ 83.5 µM) | 8 (≈ 20.9 µM) | 8 (≈ 20.9 µM) | – | – | – | – | – | – | – | MIC [13, 33]: 0.25 µg/mL (≈ 0.652 µM)
CCn1cc(C(=O)O)c(=O)c2cc(F)c(N3CCN(C)C(CF)C3)c(F)c21 (single isomer, unassigned) [Example 114, (-1-1-Ethyl-6,8-difluoro-7-[3-fluoromethyl)-4-methyl-1-piperazinyl]-1,4-dihydro-4-oxo-3-quinolinecarboxylic acid] | 4 (≈ 10.4 µM) | 2 (≈ 5.22 µM) | 0.25 (≈ 0.652 µM) | – | – | 1 (≈ 2.61 µM) | 16 (≈ 41.7 µM) | 8 (≈ 20.9 µM) | – | 1 (≈ 2.61 µM) | 16 (≈ 41.7 µM) | 4 (≈ 10.4 µM) | 8 (≈ 20.9 µM) | – | – | – | – | – | – | – | MIC ([3]; 18 hours): 0.12 µg/mL (≈ 0.313 µM); MIC ([4]; 18 hours): 0.12 µg/mL (≈ 0.313 µM); MIC ([8]; 18 hours): 0.12 µg/mL (≈ 0.313 µM); MIC [13, 33]: 0.25 µg/mL (≈ 0.652 µM)
CCn1cc(C(=O)O)c(=O)c2cc(F)c(N3CCN(C)C(CF)C3)c(F)c21 (single isomer, unassigned; (+)) [Example 115, (+)-1-Ethyl-6,8-difluoro-7-[3-(fluoromethyl)-4-methyl-1-piperazinyl]-1,4-dihydro-4-oxo-3-quinolinecarboxylic acid] | – | – | – | – | – | – | – | – | – | – | – | – | – | – | – | – | – | – | – | – | MIC ([1]; 18 hours): 8 µg/mL (≈ 20.9 µM); MIC ([2]; 18 hours): 2 µg/mL (≈ 5.22 µM); MIC (Escherichia coli LL 311; 18 hours): 0.5 µg/mL (≈ 1.3 µM); MIC ([3]; 18 hours): 0.5 µg/mL (≈ 1.3 µM); MIC ([4]; 18 hours): 0.5 µg/mL (≈ 1.3 µM); MIC ([5]; 18 hours): 2 µg/mL (≈ 5.22 µM); MIC ([6]; 18 hours): 32 µg/mL (≈ 83.5 µM); MIC ([7]; 18 hours): 8 µg/mL (≈ 20.9 µM); MIC ([8]; 18 hours): 0.25 µg/mL (≈ 0.652 µM); MIC ([9]; 18 hours): 1 µg/mL (≈ 2.61 µM); MIC ([10]; 18 hours): 16 µg/mL (≈ 41.7 µM); MIC ([11]; 18 hours): 8 µg/mL (≈ 20.9 µM); MIC ([12]; 18 hours): 8 µg/mL (≈ 20.9 µM); MIC ([13]; 18 hours): 0.5 µg/mL (≈ 1.3 µM)
CCn1cc(C(=O)O)c(=O)c2cc(F)c(N3CCN(C)C(CF)C3)cc21 (stereo not drawn) [Example 25, 1-Ethyl-6-fluoro-7-[3-(fluoromethyl)-4-methyl-1-piperazinyl]-1,4-dihydro-4-oxo-3-quinolinecarboxylic acid] | – | 1 (≈ 2.74 µM) | – | 0.5 (≈ 1.37 µM) | 0.5 (≈ 1.37 µM) | – | – | 2 (≈ 5.47 µM) | 0.25 (≈ 0.684 µM) | – | – | – | – | 1 (≈ 2.74 µM) | 1 (≈ 2.74 µM) | 1 (≈ 2.74 µM) | 8 (≈ 21.9 µM) | 0.5 (≈ 1.37 µM) | 0.5 (≈ 1.37 µM) | 2 (≈ 5.47 µM) | –
CCn1cc(C(=O)O)c(=O)c2cc(F)c(N3CCNC(c4ccn(S(=O)(=O)c5ccccc5)c4)C3)cc21 (stereo not drawn) [Example 44, 1-Ethyl-6-fluoro-1,4-dihydro-4-oxo-7-[3-[1-(phenylsulfonyl)-1H-pyrrol-3-yl]-1-piperazinyl]-3-quinolinecarboxylic acid] | – | 4 (≈ 7.63 µM) | – | 0.25 (≈ 0.477 µM) | 4 (≈ 7.63 µM) | – | – | > 256 | 2 (≈ 3.81 µM) | – | – | – | – | 4 (≈ 7.63 µM) | 4 (≈ 7.63 µM) | 8 (≈ 15.3 µM) | 4 (≈ 7.63 µM) | 4 (≈ 7.63 µM) | 0.5 (≈ 0.953 µM) | 16 (≈ 30.5 µM) | –
CCn1cc(C(=O)O)c(=O)c2cc(F)c(N3CCNC(c4cc5ccccc5o4)C3)cc21 (stereo not drawn) [Example 46, 7-[3-(2-Benzofuranyl)-1-piperazinyl]-1-ethyl-6-fluoro-1,4-dihydro-4-oxo-3-quinolinecarboxylic acid] | – | 0.5 (≈ 1.15 µM) | – | ≤ 0.12 | 0.25 (≈ 0.574 µM) | – | – | 8 (≈ 18.4 µM) | 0.25 (≈ 0.574 µM) | – | – | – | – | 0.5 (≈ 1.15 µM) | 0.5 (≈ 1.15 µM) | 1 (≈ 2.3 µM) | 1 (≈ 2.3 µM) | 0.5 (≈ 1.15 µM) | ≤ 0.12 | 1 (≈ 2.3 µM) | –
